Like-named read-outs stand apart in the source and are kept apart here. Peptide text beside a SMILES is read from it. * marks the point of attachment. Cbz = O=C(OCc1ccccc1)*; CH2F = FC*
Columns and labels:
[1] = molecular target: T1, caspase-6 cleavage of lamin A/C in SKNAS cells (Homo sapiens, UniProt P55212); test: Cell-based ELISA for cleaved lamin A/C (cellular lamin cleavage assay); details: for IC50: inhibitor 30 min before 3 µM staurosporine for 6 hours, small lamin A/C cleavage product; for activity in the cellular lamin degradation assay: inhibitor concentrations up to 100 µM, 3 µM staurosporine for 6 hours; for fold lower potency in cellular lamin assay than in enzymatic assay: cellular lamin cleavage IC50 versus enzymatic caspase-6 IC50
T1 construct: monitors cellular caspase-6 cleavage of endogenous lamin A/C under apoptotic conditions; endogenous in cells; host or cells: SKNAS (ATCC #CRL-2137)
T1 sequence (P55212 24-179 limits assumed): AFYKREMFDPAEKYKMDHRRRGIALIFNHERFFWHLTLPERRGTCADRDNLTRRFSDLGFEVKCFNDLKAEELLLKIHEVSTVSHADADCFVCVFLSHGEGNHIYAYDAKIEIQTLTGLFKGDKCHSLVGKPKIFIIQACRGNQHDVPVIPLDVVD
T1 sequence (P55212 194-293 limits assumed): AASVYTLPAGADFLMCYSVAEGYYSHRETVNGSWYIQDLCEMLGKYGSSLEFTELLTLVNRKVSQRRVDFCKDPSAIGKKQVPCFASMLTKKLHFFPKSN
Experimental: The following day, cell culture medium was aspirated and replaced with 20 µl/well basal medium (DMEM with no supplements added). […] 5 µl of diluted inhibitor was delivered to each well and incubated for 30 minutes in a cell culture incubator prior to addition of 5 µl/well staurosporine in basal medium. The final DMSO concentration in the assay was 0.1% and the final staurosporine concentration was 3 µM (or indicated concentration). […] Cells were permeabilized by the addition of 50 µl 0.2% Triton X-100 in PBS for 15 minutes at room temperature. […] The following day, primary antibody was aspirated and the wells washed 3 times with 100 µl TBST. Secondary antibody (donkey anti-rabbit IgG, HRP-conjugated (GE Healthcare #NA934V)) was delivered at 1∶2500 dilution in blocking agent (20 µl/well) and incubated 1 hour at room temperature.
In order to develop an assay more amenable to inhibitor screening, this antibody detection was adapted to a plate-based non-denaturing assay. SKNAS cells cultured in 384-well plates were treated with 3 µM staurosporine for six hours prior to fixation with 4% paraformaldehyde and permeabilization with 0.2% Triton X-100. Binding of the two antibodies that recognize neo-epitopes on the large or small lamin degradation products was detected by horseradish-peroxidase-labeled secondary antibody and subsequent chemiluminescent substrate addition (see methods for details).

[2] = molecular target: T2, Caspase-3 (Homo sapiens, UniProt P42574); test: Enzymatic caspase activity assay, (Ac-DEVD)2-Rh110 substrate; type: biochemical; details: apparent IC50; 15 minute preincubation and 40 minute reaction; 300 pM caspase-3, 1 µM (Ac-DEVD)2-Rh110
T2 construct: made in house; host or cells: E. coli
T2 sequence (P42574 29-175 limits assumed): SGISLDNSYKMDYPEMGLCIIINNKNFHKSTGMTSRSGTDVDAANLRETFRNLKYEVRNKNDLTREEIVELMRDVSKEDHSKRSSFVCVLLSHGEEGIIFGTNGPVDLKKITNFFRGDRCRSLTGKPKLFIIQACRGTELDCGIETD
T2 sequence (P42574 176-277 limits assumed): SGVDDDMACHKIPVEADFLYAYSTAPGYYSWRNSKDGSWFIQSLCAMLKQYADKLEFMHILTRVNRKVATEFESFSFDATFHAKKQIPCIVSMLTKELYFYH
Experimental: (§1) All peptide inhibitors were serially diluted in DMSO prior to cross dilution in assay buffer (50 mM HEPES pH 7.2, 25 mM MgSO4, 0.5 mM EGTA, 5 mM Glutathione, 0.01% Triton X-100 containing 0.1% Bovine Gamma Globulin (BGG)). […] Rhodamine-labeled bivalent tetrapeptide substrates were obtained from Anaspec (Fremont, CA) and used as follows: 300 pM caspase-3 reacted with 1 µM (Ac-DEVD)2 -Rh110, 1 nM caspase-6 reacted with 5 µM (Ac-VEID)2 -Rh110, 5 pM caspase-7 reacted with 1 µM (Ac-DEVD)2 -Rh110. Enzyme and inhibitor were preincubated for 15 minutes prior to the addition of substrate to initiate the enzymatic reaction.

[3] = molecular target: T3, Caspase-6 (Homo sapiens, UniProt P55212); test: Enzymatic caspase activity assay, (Ac-VEID)2-Rh110 substrate; details: 15 minute enzyme/inhibitor preincubation and 40 minute enzyme reaction
T3 sequence (P55212 24-179 limits assumed): T1 sequence (P55212 24-179 limits assumed)
T3 sequence (P55212 194-293 limits assumed): T1 sequence (P55212 194-293 limits assumed)
Experimental: as §1

[4] = molecular target: T4, Caspase-7 (Homo sapiens, UniProt P55210); test: Enzymatic caspase activity assay, (Ac-DEVD)2-Rh110 substrate; details: read-out: Mean IC50 Caspase-7; apparent IC50; 15 minute preincubation and 40 minute reaction; 5 pM caspase-7, 1 µM (Ac-DEVD)2-Rh110
T4 sequence (P55210 24-198 limits assumed): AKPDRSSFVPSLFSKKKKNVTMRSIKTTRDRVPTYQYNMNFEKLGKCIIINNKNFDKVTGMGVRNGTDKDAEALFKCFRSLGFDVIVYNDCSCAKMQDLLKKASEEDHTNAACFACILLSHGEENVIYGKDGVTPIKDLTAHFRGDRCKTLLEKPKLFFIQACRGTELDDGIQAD
T4 sequence (P55210 207-303 limits assumed): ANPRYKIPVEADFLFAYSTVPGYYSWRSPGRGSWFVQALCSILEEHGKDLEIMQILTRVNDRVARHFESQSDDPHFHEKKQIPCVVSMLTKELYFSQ
Experimental: as §1

[5] = tested on: VEIDase activity in SKNAS cells; test: Caspase-Glo 6 assay (lysate based); type: cell-based, human; details: 3 µM staurosporine for 6 hours, lysate based readout, read-out: IC50 for inhibition of VEIDase activity, Caspase-Glo 6 assay
Experimental: SKNAS cells were plated at a density of 20,000 cells per well into 384-well black clear-bottom cell culture plates in 20 µl/well growth medium and allowed to adhere overnight. The following day, 5 µl of peptide inhibitor diluted in growth medium was delivered to each well 30 minutes prior to addition of 5 µl/well staurosporine in growth medium. The final DMSO concentration in the assay was 0.1% and the final staurosporine concentration was 3 µM. Following 6 hours incubation at 37°C, Caspase-Glo® 6 reagents (Promega; Madison, WI) were prepared according to manufacturer's recommendation, and 30 µl was added directly to each well, followed by 1 hour incubation at 37°C and luminescence recording using a Perkin Elmer Envision.

[6] = tested on: SKNAS cells; test: Mass spectrometry analysis of intracellular inhibitor accumulation; details: 10 µM inhibitor, 1 hour at 37°C, LC/MS/MS
Experimental: SKNAS cells were seeded in 12-well plates at a concentration of 5×10^6 cells/mL and allowed to adhere overnight prior to the experiment. Caspase inhibitors (10 µM) in Hank's balance Salt Solution (HBSS; Invitrogen) buffer containing 10 mM HEPES (Invitrogen) and a final DMSO concentration of 0.1% were added in triplicate to the cells. Non specific binding (NSB) samples were prepared by immediately aspirating the dose solution and washing the cells with 1 mL of ice cold HBSS. Cells for the accumulation experiment were incubated for 1 hour at 37°C with inhibitors prior to washing with 1 mL ice cold HBSS. Analytical internal standard (200 nM propranolol (Sigma) in 100% acetonitrile (ACN) with 0.1% formic acid) and blank HBSS buffer were sequentially added to the 12-well plates containing the NSB and accumulation samples. Reference samples for each inhibitor were made by adding internal standard to dose solution and cells incubated for 1 hour at 37°C. The cells from all experiments were scraped from the bottom of the 12 well plates, sonicated for approximately 30 minutes, and centrifuged for 10 minutes at 3000 x g prior to LC/MS/MS analysis.
The LC/MS/MS system consisted of an AB Sciex API4000 mass spectrometer (AB Sciex, Foster City, CA), an Aria LX2 multiplexing LC system (Thermo Fisher Scientific, Waltham, MA) and a CTC Analytics autosampler (Leap Technologies, Carrboro, NC). An ESI Spray source in the positive ion mode and multiple reaction monitoring (MRM) were used to quantitate peak areas. The LC separations were performed on a 50×2.0 mm Gemini C18 analytical column (Phenomenex, Torrance, CA). The mobile phases consisted of water with 0.1% formic acid (mobile phase A) and ACN with 0.1% formic acid (mobile phase B). Mass spectrometer data were processed using Analyst software version 1.4.2.

[7] = tested on: SKNAS cells; test: LDH release assay; type: cell-based, human
Experimental: SKNAS cells were plated at a density of 20,000 cells per well into 384-well black clear-bottom cell culture plates in 20 µl/well growth medium and allowed to adhere overnight. The following day, 5 µl staurosporine diluted in growth medium was delivered to each well and incubated for the indicated time in a cell culture incubator. The final DMSO concentration in the assay was 0.1%. At each timepoint, lactate dehydrogenase (LDH) activity was measured in cell supernatants using a colorimetric LDH activity measurement kit (BioVision; Mountain View, CA) according to manufacturer's recommendation by measuring absorbance at 450 nm using a Spectramax platereader (Molecular Devices; Sunnyvale, CA).

[8] = read-out: Enzymatic Caspase-6 IC50
[9] = read-out: Mean IC50 Caspase-6, apparent IC50, 1 nM caspase-6, 5 µM (Ac-VEID)2-Rh110

| Molecule | IC50 ([1]; SKNAS cells) [nM] | IC50 [3, 8] [nM] | IC50 [2] [nM] | IC50 [3, 9] [nM] | IC50 [4] [nM] | further results |
| --- | --- | --- | --- | --- | --- | --- |
| COC(=O)C[C@H](NC(=O)[C@H](C)NC(=O)[C@@H](NC(=O)OCc1ccccc1)C(C)C)C(=O)CF [z-VAD-FMK] (Cbz-Val-Ala-Asp(OMe)-CH2F) | 44000 | 2110 | 168 | 2110 | 74.7 | – |
| CC(=O)N[C@@H](CC(=O)O)C(=O)N[C@@H](CCC(=O)O)C(=O)N[C@H](C(=O)N[C@H](C=O)CC(=O)O)C(C)C [Ac-DEVD-CHO] | > 100000 | 31 | – | 30.5 | 3.7 | activity in the cellular lamin degradation assay ([1]; SKNAS cells): inactive in lamin degradation assay; IC50 [5]: 1490 nM |
| COC(=O)CC[C@H](NC(=O)[C@H](CC(=O)OC)NC(=O)OCc1ccccc1)C(=O)N[C@H](C(=O)N[C@@H](CC(=O)OC)C(=O)CF)C(C)C [z-DEVD-FMK] | > 100000 | 402 | – | 402 | 98.5 | – |
| CC[C@H](C)[C@H](NC(C)=O)C(=O)N[C@@H](CCC(=O)O)C(=O)N[C@H](C(=O)N[C@H](C=O)CC(=O)O)[C@@H](C)O [Ac-IETD-CHO] (Ac-IETD-aldehyde) | – | – | 75.8 | 53.2 | 553 | – |
| z-EID-TFPM | 21000 | 8.4 | – | – | – | – |
| CN[C@@H]1C[C@H]2O[C@@](C)([C@@H]1OC)n1c3ccccc3c3c4c(c5c6ccccc6n2c5c31)C(=O)NC4 [staurosporine] | – | – | – | – | – | signal:background ratio of lamin A/C degradation ([1]; SKNAS cells, 3 µM staurosporine, six-hour treatment, no inhibitor): 8.8 fold; treatment time required for the same degree of LDH release ([7]; 30 µM staurosporine): 4 h; staurosporine concentration at which LDH release is detected above background levels ([7]; after 6 hours of treatment): ~4 µM |
| CC(C)[C@H](NC(=O)c1ccc2ccccc2n1)C(=O)N[C@@H](CC(=O)O)C(=O)COc1c(F)cccc1F [Q-VD-OPh] | 940 | 156 | – | – | – | fold lower potency in cellular lamin assay than in enzymatic assay [1]: 6 fold; % cell accumulation [6]: 1.72% |
| CC[C@H](C)[C@H](NC(=O)[C@H](CCC(=O)O)NC(=O)[C@@H](NC(C)=O)C(C)C)C(=O)N[C@H](C=O)CC(=O)O [Ac-VEID-CHO] (Ac-VEID-aldehyde) | – | – | 13.6 | – | 162 | activity in the cellular lamin degradation assay ([1]; SKNAS cells): lacks any activity in the cellular assay; IC50 [5]: 490 nM |

Now from value to molecule, other results behind:

| IC50 ([1]; SKNAS cells) [nM] | IC50 [3, 8] [nM] | Molecule | IC50 [2] [nM] | IC50 [3, 9] [nM] | IC50 [4] [nM] | further results |
| --- | --- | --- | --- | --- | --- | --- |
| 180 | 19 | z-ID-TFPM | – | – | – | fold lower potency in cellular lamin assay than in enzymatic assay [1]: ~10 fold; % cell accumulation [6]: 1.97% |
| 12000 | < 1.7 | z-VEID-tetrafluorophenoxymethyl [z-VEID-TFPM] | – | – | – | % cell accumulation [6]: 0.17% |
| – | 129 | CC[C@H](C)[C@H](NC(=O)[C@H](CCC(=O)OC)NC(=O)[C@@H](NC(=O)OCc1ccccc1)C(C)C)C(=O)N[C@@H](CC(=O)OC)C(=O)CF [z-VEID-FMK] (Cbz-VE(OMe)ID(OMe)-CH2F) | 45.1 | 129 | 648 | – |
